Source: US11400079B2, “Antibacterial monobactams” (University of Notre Dame du Lac, priority 2017, dated 2022)
Counter-ions that a name gives are not always drawn. Like-named read-outs stand apart in the source and are kept apart here.

What was measured:
[1] = test system: panel of Gram-negative and Gram-positive bacteria; experiment: Antibacterial activity against a panel of bacteria; assay type: cell-based
Description: (§1) General Methods. All solvents and reagents were obtained from commercial sources and used without further purification unless otherwise stated. General methods of purification of compounds involved the use column chromatography with silica gel (230-400 mesh) purchased from Silicycle, Quebec City, Canada. The reactions were monitored by TLC on precoated Merck 60 F254 silica gel plates and visualized using UV light (254 nm).
(§2) Antibacterial assays were performed using iron depleted media as described previously (J. Med. Chem. 2017, 60, 4577).

Gram-negative bacteria = experiment: Antibacterial activity against tested Gram-negative strains (summary in words); assay type: cell-based; conditions: tested strains of Gram-negative bacteria
Description: as §1, §2

A.baumannii ISR14-005 = experiment: MIC antibacterial assay (iron depleted media); assay type: cell-based, Acinetobacter baumannii; conditions: read-out: MIC
Description: as §1, §2

P. aeruginosa ARC 3506 = experiment: MIC antibacterial assay (iron depleted media); assay type: cell-based; conditions: Pseudomonas aeruginosa, ARC3506, P. aeruginosa ARC 3506, read-out: MIC
Description: as §1, §2

P. aeruginosa ISR-14-003 = experiment: MIC antibacterial assay (iron depleted media); assay type: cell-based; conditions: read-out: MIC
Description: as §1, §2

P. aeruginosa KW799/wt = experiment: MIC antibacterial assay (iron depleted media); assay type: cell-based; conditions: Pseudomonas aeruginosa; P. aeruginosa KW799/wt; MH2 broth with 160 μM bipyridyl added; read-out: MIC
Description: as §1, §2

[2] = test system: Citrobacter freuendii ATCC 29063; experiment: MIC antibacterial assay (iron depleted media); assay type: cell-based; conditions: ATCC29063; Citrobacter freuendii ATCC 29063; MH2 broth with 160 μM bipyridyl added; read-out: MIC
Description: as §1, §2

S. aureus SG 511 = experiment: MIC antibacterial assay (iron depleted media); assay type: cell-based; conditions: Staphylococcus aureus, SG511; S. aureus SG 511; MH2 broth with 160 μM bipyridyl added; read-out: MIC
Description: as §1, §2

[3] = test system: Enterobacter aerogenes X816; experiment: MIC antibacterial assay (iron depleted media); assay type: cell-based; conditions: Klebsiella aerogenes; Enterobacter aerogenes X816; MH2 broth with 160 μM bipyridyl added; read-out: MIC
Description: as §1, §2

Proteus mirabilis X235 = experiment: MIC antibacterial assay (iron depleted media); assay type: cell-based; conditions: Proteus mirabilis X235; MH2 broth with 160 μM bipyridyl added; read-out: MIC
Description: as §1, §2

[4] = test system: Salmonella typhimurium ATCC13311; experiment: MIC antibacterial assay (iron depleted media); assay type: cell-based; conditions: Salmonella enterica; Salmonella typhimurium ATCC13311; MH2 broth with 160 μM bipyridyl added; read-out: MIC
Description: as §1, §2

[5] = test system: A. baumannii ATCC BAA 1797; experiment: MIC antibacterial assay (iron depleted media); assay type: cell-based; conditions: Acinetobacter baumannii, BAA1797; A. baumannii ATCC BAA 1797; MH2 broth with 160 μM bipyridyl added; read-out: MIC
Description: as §1, §2

P. aeruginosa ARC 3502 = experiment: MIC antibacterial assay (iron depleted media); assay type: cell-based; conditions: Pseudomonas aeruginosa, read-out: MIC
Description: as §1, §2

A. baumannii ATCC 17961 = experiment: MIC antibacterial assay (iron depleted media); assay type: cell-based; conditions: Acinetobacter baumannii, ATCC17961; A. baumannii ATCC 17961; MH2 broth with 160 μM bipyridyl added; read-out: MIC
Description: as §1, §2

P. aeruginosa ISR-14-004 = experiment: MIC antibacterial assay (iron depleted media); assay type: cell-based; conditions: read-out: MIC
Description: as §1, §2

[6] = test system: A. baumannii ATCC17978-PNT-165; experiment: MIC antibacterial assay (iron depleted media); assay type: cell-based; conditions: Acinetobacter baumannii
Description: as §1, §2

P. aeruginosa 01 = experiment: MIC antibacterial assay (iron depleted media); assay type: cell-based; conditions: Pseudomonas aeruginosa; P. aeruginosa 01; MH2 broth with 160 μM bipyridyl added; read-out: MIC
Description: as §1, §2

E. coli DCO = experiment: MIC antibacterial assay (iron depleted media); assay type: cell-based; conditions: Escherichia coli; E. coli DCO; MH2 broth with 160 μM bipyridyl added; read-out: MIC
Description: as §1, §2

[7] = test system: A. baumannii ATCC BAA 1793; experiment: MIC antibacterial assay (iron depleted media); assay type: cell-based, Acinetobacter baumannii; conditions: A. baumannii ATCC BAA 1793
Description: as §1, §2

A. baumannii ARC 5079 = experiment: MIC antibacterial assay (iron depleted media); assay type: cell-based, Acinetobacter baumannii; conditions: A. baumannii ARC 5079
Description: as §1, §2

[8] = test system: A. baumannii ATCC BAA 1800; experiment: MIC antibacterial assay (iron depleted media); assay type: cell-based, Acinetobacter baumannii; conditions: tazobactam alone @ 10 μg/ml
Description: as §1, §2

[9] = test system: A. baumannii ATCC 17978-PNT-320; experiment: MIC antibacterial assay (iron depleted media); assay type: cell-based, Acinetobacter baumannii
Description: as §1, §2

B. dolosa AU0018 = experiment: MIC antibacterial assay (iron depleted media); assay type: cell-based; conditions: Burkholderia dolosa; B. dolosa AU0018; MH2 broth with 160 μM bipyridyl added; read-out: MIC
Description: as §1, §2

[10] = compound alone, MH2 broth with 160 μM bipyridyl added

## COC(=O)CSCC1C(NC(=O)Cc2ccccc2)C(=O)N1S(=O)(=O)[O-].[K+] (stereo not drawn) [Compound 24, Potassium 2-(((2-methoxy-2-oxoethyl)thio)methyl)-4-oxo-3-(2-phenylacetamido) azetidine-1-sulfonate]
[1]; panel of Gram-negative and Gram-positive bacteria
  antibacterial activity (in words): not active
[1]; tested strains
  antibacterial activity (MIC): > 50 µM

## CO/N=C(\C(=O)NC1C(=O)N(S(=O)(=O)O)[C@H]1CSCCN)c1cnc(N)s1 (stereo partly drawn) [Compound 35, (E)-3-(2-(2-aminothiazol-5-yl)-2-(methoxyimino)acetamido)-2-(((2-ammonioethyl)thio)methyl)-4-oxoazetidine-1-sulfonate, potassium salt]
Gram-negative bacteria
  antibacterial activity (in words): moderately active
A.baumannii ISR14-005; Acinetobacter baumannii, ISR14005, A. baumannii ISR14-005 (clinical isolate), compound alone, MH2 broth with 160 μM bipyridyl added
  MIC: > 50 µM
P. aeruginosa ARC 3506; [10]
  MIC: > 50 µM
P. aeruginosa ISR-14-003; Pseudomonas aeruginosa, ISR14003, P. aeruginosa ISR-14-003 (clinical isolate), compound alone, MH2 broth with 160 μM bipyridyl added
  MIC: > 50 µM
P. aeruginosa KW799/wt
  MIC: > 50 µM
[2]
  MIC: 12.5 µM
S. aureus SG 511
  MIC: > 50 µM
[3]
  MIC: 0.2 µM
Proteus mirabilis X235
  MIC: 12.5 µM
[4]
  MIC: 12.5 µM
[5]
  MIC: > 50 µM
P. aeruginosa ARC 3502; ARC3502, compound alone, MH2 broth with 160 μM bipyridyl added
  MIC: > 50 µM
A. baumannii ATCC 17961
  MIC: 50 µM
P. aeruginosa ISR-14-004; Pseudomonas aeruginosa, ISR14004, P. aeruginosa ISR-14-004 (clinical isolate), compound alone, MH2 broth with 160 μM bipyridyl added
  MIC: > 50 µM
[6]
  MIC: 50 µM
P. aeruginosa 01
  MIC: > 50 µM
E. coli DCO
  MIC: 25 µM

## C[C@]1(Cn2ccnn2)[C@H](C(=O)O)N2C(=O)C[C@H]2S1(=O)=O [Tazobactam, tazobactam, reference compound]
[7]; tazobactam alone @ 10 μg/ml
  inhibition: very slight
A. baumannii ARC 5079; Acinetobacter baumannii, ARC5079, tazobactam alone, read-out: MIC
  MIC: > 10 µg/mL
[8]
  inhibition: very slight
A.baumannii ISR14-005; Acinetobacter baumannii, ISR14005, A. baumannii ISR14-005, tazobactam alone
  MIC: > 20 µg/mL
[9]; Acinetobacter baumannii, ATCC17978
  MIC: < 10 µg/mL
P. aeruginosa ARC 3506; tazobactam alone
  MIC: > 10 µg/mL
P. aeruginosa ISR-14-003; Pseudomonas aeruginosa, ISR14003, P. aeruginosa ISR-14-003, tazobactam alone
  MIC: > 20 µg/mL
B. dolosa AU0018
  MIC: > 50 µM
P. aeruginosa ARC 3502; ARC3502, tazobactam alone
  MIC: > 10 µg/mL
P. aeruginosa ISR-14-004; Pseudomonas aeruginosa, ISR14004, P. aeruginosa ISR-14-004, tazobactam alone
  MIC: > 20 µg/mL

## Polymixin B [reference compound]
Gram-negative bacteria
  antibacterial activity (in words): excellent activity
[7]; MH2 broth with 160 μM bipyridyl added
  MIC: <0.025 µM
A. baumannii ARC 5079; [10]
  MIC: <0.025 to 0.1 µM
A.baumannii ISR14-005; A. baumannii ISR14-005 (clinical isolate), compound alone, MH2 broth with 160 μM bipyridyl added
  MIC: <0.025 µM
[9]; A. baumannii ATCC 17978-PNT-320 (cephalosporinase producing organism), MH2 broth with 160 μM bipyridyl added
  MIC: <0.025 µM
P. aeruginosa ISR-14-003; P. aeruginosa ISR-14-003 (clinical isolate), compound alone, MH2 broth with 160 μM bipyridyl added
  MIC: 0.1 µM
P. aeruginosa ISR-14-004; P. aeruginosa ISR-14-004 (clinical isolate), compound alone, MH2 broth with 160 μM bipyridyl added
  MIC: 0.05 µM
